{"source": "ChEMBL document CHEMBL5338758", "about": "“Design, Synthesis, and Bioevaluation of Novel MyD88 Inhibitor c17 against Acute Lung Injury Derived from the Virtual Screen” (J Med Chem, 2023)", "key": {"[1]": {"assay": "Drug distribution in Sprague-Dawley rat lung at 1 mg/kg, iv measured after 2 hrs by LC-MS/MS analysis", "assay_type": "ADME, organism-based", "details": "read-out: Drug uptake"}, "Mus musculus [2]": {"tested_on": "Mus musculus", "assay": "Anti-inflammatory activity against LPS-induced […] mouse model of […] assessed as decrease in TNF-alpha level in serum at 20 mg/kg, po pre-treated with compound for 30 mins followed by LPS stimulation and measured after 6 hrs", "assay_type": "functional, organism-based", "details": "time 6.5 hrs"}, "[3]": {"assay": "AUC (0 to t) in Sprague-Dawley rat at 1 mg/kg, iv measured at 5 to 1440 min by LC-MS/MS analysis", "assay_type": "ADME, organism-based", "parameters": "time upper 1440 min, time lower 5 min, dose 1 mg/kg, route iv", "details": "in vivo"}, "[4]": {"target": "Myeloid differentiation primary response protein MyD88 (Homo sapiens, UniProt Q99836)", "sequence (Q99836 whole entry, the tested form may be a part)": "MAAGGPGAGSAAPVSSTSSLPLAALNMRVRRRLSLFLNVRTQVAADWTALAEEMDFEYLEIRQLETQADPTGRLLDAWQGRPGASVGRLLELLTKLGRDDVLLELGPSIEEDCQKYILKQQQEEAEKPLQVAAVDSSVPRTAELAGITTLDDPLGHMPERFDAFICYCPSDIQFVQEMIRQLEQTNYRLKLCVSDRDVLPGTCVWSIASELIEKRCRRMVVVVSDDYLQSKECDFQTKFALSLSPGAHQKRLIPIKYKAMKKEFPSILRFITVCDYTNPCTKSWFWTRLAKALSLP", "assay": "Binding affinity to human MyD88 TIR domain by SPR analysis", "details": "dose 1.19-5.94 10^-5M"}, "Mus musculus [5]": {"tested_on": "Mus musculus", "assay": "Anti-inflammatory activity against LPS-induced […] mouse model of […] assessed as decrease in TNF-alpha mRNA level in lung at 20 mg/kg, po pre-treated with compound for 30 mins followed by LPS stimulation and measured after 6 hrs by qRT-PCR analysis", "assay_type": "functional, organism-based", "details": "time 6.5 hrs"}, "J774.A1 [6]": {"tested_on": "J774.A1", "assay": "Anti-inflammatory activity in mouse J774.A1 cells assessed as inhibition of LPS-induced TNF-alpha production pre-stimulated with LPS for 24 hrs followed by compound addition and measured after 0.5 hrs by ELISA analysis", "assay_type": "functional, cell-based"}, "[7]": {"assay": "Drug distribution in Sprague-Dawley rat heart at 10 mg/kg, po measured after 1 hrs by LC-MS/MS analysis", "assay_type": "ADME, organism-based", "details": "read-out: Drug uptake"}, "[8]": {"assay": "Drug distribution in Sprague-Dawley rat lung at 10 mg/kg, po measured after 1 hrs by LC-MS/MS analysis", "assay_type": "ADME, organism-based", "details": "read-out: Drug uptake"}, "[9]": {"assay": "Drug distribution in Sprague-Dawley rat spleen at 10 mg/kg, po measured after 8 hrs by LC-MS/MS analysis", "assay_type": "ADME, organism-based", "details": "read-out: Drug uptake"}, "Mus musculus [10]": {"tested_on": "Mus musculus", "assay": "Anti-inflammatory activity against LPS-induced […] mouse model of […] assessed as alleviation of lung edema by measuring decrease in total lung protein level at 20 mg/kg, po pre-treated with compound for 30 mins followed by LPS stimulation and measured after 6 hrs", "assay_type": "functional, organism-based", "details": "time 6.5 hrs"}, "[11]": {"assay": "Drug distribution in Sprague-Dawley rat liver at 10 mg/kg, po measured after 1 hrs by LC-MS/MS analysis", "assay_type": "ADME, organism-based", "details": "read-out: Drug uptake"}, "[12]": {"target": "TLR4-MyD88 (Mus musculus) (UniProt Q9QUK6+P22366)", "sequence (P22366 whole entry, looked up)": "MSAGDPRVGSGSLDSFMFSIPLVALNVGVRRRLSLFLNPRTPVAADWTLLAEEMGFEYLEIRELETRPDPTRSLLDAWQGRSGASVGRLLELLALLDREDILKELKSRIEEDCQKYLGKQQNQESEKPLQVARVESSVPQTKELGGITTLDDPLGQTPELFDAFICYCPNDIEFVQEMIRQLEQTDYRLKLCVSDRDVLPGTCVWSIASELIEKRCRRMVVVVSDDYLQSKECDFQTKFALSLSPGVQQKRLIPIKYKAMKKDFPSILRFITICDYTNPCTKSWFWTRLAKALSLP", "sequence (Q9QUK6 whole entry, looked up)": "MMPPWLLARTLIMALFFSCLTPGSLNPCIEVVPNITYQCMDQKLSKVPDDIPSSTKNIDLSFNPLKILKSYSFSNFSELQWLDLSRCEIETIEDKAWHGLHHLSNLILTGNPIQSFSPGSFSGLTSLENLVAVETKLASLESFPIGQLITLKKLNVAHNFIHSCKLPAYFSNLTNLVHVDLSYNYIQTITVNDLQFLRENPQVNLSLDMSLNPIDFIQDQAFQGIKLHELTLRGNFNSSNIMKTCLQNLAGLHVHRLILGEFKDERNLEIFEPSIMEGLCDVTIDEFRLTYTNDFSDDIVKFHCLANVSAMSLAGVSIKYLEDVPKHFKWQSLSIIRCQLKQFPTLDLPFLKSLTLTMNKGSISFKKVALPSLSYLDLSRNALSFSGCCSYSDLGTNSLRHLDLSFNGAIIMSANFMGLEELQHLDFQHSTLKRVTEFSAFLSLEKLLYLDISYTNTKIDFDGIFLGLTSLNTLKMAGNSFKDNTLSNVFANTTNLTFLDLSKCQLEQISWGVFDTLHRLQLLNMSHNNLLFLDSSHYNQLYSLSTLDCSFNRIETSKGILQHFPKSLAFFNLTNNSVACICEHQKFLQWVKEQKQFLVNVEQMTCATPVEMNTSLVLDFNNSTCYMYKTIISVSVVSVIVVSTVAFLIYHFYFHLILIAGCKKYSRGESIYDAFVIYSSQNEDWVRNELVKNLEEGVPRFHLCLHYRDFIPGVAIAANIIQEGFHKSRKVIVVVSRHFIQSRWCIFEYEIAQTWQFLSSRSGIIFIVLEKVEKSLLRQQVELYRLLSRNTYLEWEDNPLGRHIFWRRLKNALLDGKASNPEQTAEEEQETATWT", "assay": "Inhibition of MyD88/TLR4 interaction in LPS-stimulated mouse J774.A1 cells at 40 to 80 uM preincubated with compound for 2 hrs followed by LPS stimulation by co-immunoprecipitation analysis", "assay_type": "cell-based", "details": "dose 40-80 µM"}, "Mus musculus [13]": {"tested_on": "Mus musculus", "assay": "Anti-inflammatory activity against LPS-induced […] mouse model of […] assessed as decrease in IL-6 mRNA level in lung at 20 mg/kg, po pre-treated with compound for 30 mins followed by LPS stimulation and measured after 6 hrs by qRT-PCR analysis", "assay_type": "functional, organism-based", "details": "time 6.5 hrs"}, "[14]": {"assay": "Cmax in Sprague-Dawley rat at 10 mg/kg, po measured at 15 to 1440 min by LC-MS/MS analysis", "assay_type": "ADME, organism-based", "parameters": "time lower 15 min, dose 10 mg/kg, time upper 1440 min, route po", "details": "in vivo"}, "[15]": {"assay": "Toxicity in ICR mouse assessed as effect on body weight change at 20 to 400 mg/kg, po measured upto 21 days", "assay_type": "organism-based", "details": "in vivo, 504 h, dose 20-400 mg/kg, time < 21 day"}, "[16]": {"assay": "Drug distribution in Sprague-Dawley rat spleen at 10 mg/kg, po measured after 3 hrs by LC-MS/MS analysis", "assay_type": "ADME, organism-based", "details": "read-out: Drug uptake"}, "Mus musculus [17]": {"tested_on": "Mus musculus", "assay": "Anti-inflammatory activity against LPS-induced […] mouse model of […] assessed as decrease in IL-6 level in BALF at 20 mg/kg, po pre-treated with compound for 30 mins followed by LPS stimulation and measured after 6 hrs", "assay_type": "functional, organism-based", "details": "time 6.5 hrs"}, "[18]": {"assay": "Half-life in Sprague-Dawley rat at 1 mg/kg, iv measured at 5 to 1440 min by LC-MS/MS analysis", "assay_type": "ADME, organism-based", "details": "in vivo, time 5-1440 min"}, "Mus musculus [19]": {"tested_on": "Mus musculus", "assay": "Anti-inflammatory activity against LPS-induced […] mouse model of […] assessed as alleviation of interstitial edema in lung at 20 mg/kg, po pre-treated with compound for 30 mins followed by LPS stimulation and measured after 6 hrs by H&E staining based histopathological analysis", "assay_type": "functional, organism-based", "details": "time 6.5 hrs"}, "[20]": {"assay": "Drug distribution in Sprague-Dawley rat heart at 1 mg/kg, iv measured after 2 hrs by LC-MS/MS analysis", "assay_type": "ADME, organism-based", "details": "read-out: Drug uptake"}, "[21]": {"assay": "Drug distribution in Sprague-Dawley rat heart at 1 mg/kg, iv measured after 4 hrs by LC-MS/MS analysis", "assay_type": "ADME, organism-based", "details": "read-out: Drug uptake"}, "J774.A1 [22]": {"tested_on": "J774.A1", "assay": "Anti-inflammatory activity in mouse J774.A1 cells assessed as inhibition of LPS-induced TNF-alpha production at 10 uM pre-stimulated with LPS for 24 hrs followed by compound addition and measured after 0.5 hrs by ELISA analysis relative to control", "assay_type": "functional"}, "[23]": {"assay": "Drug distribution in Sprague-Dawley rat liver at 10 mg/kg, po measured after 8 hrs by LC-MS/MS analysis", "assay_type": "ADME, organism-based", "details": "read-out: Drug uptake"}, "[24]": {"assay": "AUC (0 to t) in Sprague-Dawley rat at 10 mg/kg, po measured at 15 to 1440 min by LC-MS/MS analysis", "assay_type": "ADME, organism-based", "parameters": "time 15-1440 min, dose 10 mg/kg, route po", "details": "in vivo"}, "[25]": {"assay": "Drug distribution in Sprague-Dawley rat kidney at 1 mg/kg, iv measured after 4 hrs by LC-MS/MS analysis", "assay_type": "ADME, organism-based", "details": "read-out: Drug uptake"}, "[26]": {"assay": "Tmax in Sprague-Dawley rat at 1 mg/kg, iv measured at 5 to 1440 min by LC-MS/MS analysis", "assay_type": "ADME, organism-based", "details": "in vivo, time 5-1440 min"}, "[27]": {"assay": "Drug distribution in Sprague-Dawley rat kidney at 1 mg/kg, iv measured after 0.5 hrs by LC-MS/MS analysis", "assay_type": "ADME, organism-based", "details": "read-out: Drug uptake"}, "J774.A1 [28]": {"tested_on": "J774.A1", "assay": "Cytotoxicity against mouse J774.A1 cells assessed as reduction in cell survival incubated for 24 hrs by MTT assay", "assay_type": "toxicity, cell-based", "details": "j774.a1, 24 h"}, "[29]": {"assay": "Drug distribution in Sprague-Dawley rat brain at 1 mg/kg, iv measured after 2 hrs by LC-MS/MS analysis", "assay_type": "ADME, organism-based", "details": "read-out: Drug uptake"}, "J774.A1 [30]": {"tested_on": "J774.A1", "assay": "Anti-inflammatory activity in mouse J774.A1 cells assessed as inhibition of LPS-induced IL-6 production pre-stimulated with LPS for 24 hrs followed by compound addition and measured after 0.5 hrs by ELISA analysis", "assay_type": "functional, cell-based"}, "[31]": {"assay": "Drug distribution in Sprague-Dawley rat lung at 10 mg/kg, po measured after 3 hrs by LC-MS/MS analysis", "assay_type": "ADME, organism-based", "details": "read-out: Drug uptake"}, "[32]": {"assay": "Stability of compound in rat serum at 25 degreeC measured every 2 hrs for 24 hrs by HPLC analysis", "assay_type": "ADME, cell-free"}, "[33]": {"assay": "Oral bioavailability in Sprague-Dawley rat at 10 mg/kg measured at 15 to 1440 min by LC-MS/MS analysis", "assay_type": "ADME, organism-based", "details": "in vivo, time 15-1440 min"}, "[34]": {"assay": "Tmax in Sprague-Dawley rat at 10 mg/kg, po measured at 15 to 1440 min by LC-MS/MS analysis", "assay_type": "ADME, organism-based", "details": "in vivo, time 15-1440 min"}, "Mus musculus [35]": {"tested_on": "Mus musculus", "assay": "Anti-inflammatory activity against LPS-induced […] mouse model of […] assessed as decrease in TNF-alpha level in BALF at 20 mg/kg, po pre-treated with compound for 30 mins followed by LPS stimulation and measured after 6 hrs", "assay_type": "functional, organism-based", "details": "time 6.5 hrs"}, "[36]": {"assay": "Drug distribution in Sprague-Dawley rat liver at 1 mg/kg, iv measured after 0.5 hrs by LC-MS/MS analysis", "assay_type": "ADME, organism-based", "details": "read-out: Drug uptake"}}, "note": "Calls of active or inactive are those of the source. The rule behind the calls is not given here.", "data": [{"smiles": "COc1ccc(NS(=O)(=O)c2ccc(N3CCN(Cc4cccc([N+](=O)[O-])c4)CC3)c([N+](=O)[O-])c2)cn1", "values": [{"measurement": "concentration at 2 h", "setting": "[1]", "value": 206, "unit": "ng/g"}, {"measurement": "Activity", "setting": "Mus musculus [2]", "value": "Active"}, {"measurement": "AUCt", "setting": "[3]", "value": 4795, "unit": "ng·h/mL"}, {"measurement": "Activity", "setting": "[4]", "value": "Dose-Dependent Effect"}, {"measurement": "Activity", "setting": "Mus musculus [5]", "value": "Active"}, {"measurement": "IC50", "setting": "J774.A1 [6]", "value": 8.17, "unit": "µM"}, {"measurement": "concentration at 1 h", "setting": "[7]", "value": 10.6, "unit": "ng/g"}, {"measurement": "concentration at 1 h", "setting": "[8]", "value": 41.6, "unit": "ng/g"}, {"measurement": "concentration at 8 h", "setting": "[9]", "value": 137, "unit": "ng/g"}, {"measurement": "Activity", "setting": "Mus musculus [10]", "value": "Active"}, {"measurement": "concentration at 1 h", "setting": "[11]", "value": 267, "unit": "ng/g"}, {"measurement": "inhibition", "setting": "[12]", "value": "Active"}, {"measurement": "Activity", "setting": "Mus musculus [13]", "value": "Active"}, {"measurement": "Cmax", "setting": "[14]", "value": 2210, "unit": "ng/mL"}, {"measurement": "Activity", "setting": "[15]", "value": "Non-Toxic"}, {"measurement": "concentration at 3 h", "setting": "[16]", "value": 32, "unit": "ng/g"}, {"measurement": "Activity", "setting": "Mus musculus [17]", "value": "Active"}, {"measurement": "half-life", "setting": "[18]", "value": 66, "unit": "min"}, {"measurement": "Activity", "setting": "Mus musculus [19]", "value": "Active"}, {"measurement": "concentration at 2 h", "setting": "[20]", "value": 118, "unit": "ng/g"}, {"measurement": "concentration at 4 h", "setting": "[21]", "value": 275, "unit": "ng/g"}, {"measurement": "inhibition at 10 µM", "setting": "J774.A1 [22]", "value": 36.7, "unit": "%"}, {"measurement": "concentration at 8 h", "setting": "[23]", "value": 249, "unit": "ng/g"}, {"measurement": "AUCt", "setting": "[24]", "value": 68163, "unit": "ng·h/mL"}, {"measurement": "concentration at 4 h", "setting": "[25]", "value": 250, "unit": "ng/g"}, {"measurement": "Tmax", "setting": "[26]", "value": 6, "unit": "min"}, {"measurement": "concentration at 0.5 h", "setting": "[27]", "value": 52.5, "unit": "ng/g"}, {"measurement": "Activity", "setting": "J774.A1 [28]", "value": "Non-Toxic"}, {"measurement": "concentration at 2 h", "setting": "[29]", "value": 0.66, "unit": "ng/g"}, {"measurement": "IC50", "setting": "J774.A1 [30]", "value": 2.17, "unit": "µM"}, {"measurement": "concentration at 3 h", "setting": "[31]", "value": 37.1, "unit": "ng/g"}, {"measurement": "Stability", "setting": "[32]", "value": "Stable"}, {"measurement": "F", "setting": "[33]", "value": 14.2, "unit": "%"}, {"measurement": "Tmax", "setting": "[34]", "value": 48, "unit": "min"}, {"measurement": "Activity", "setting": "Mus musculus [35]", "value": "Active"}, {"measurement": "concentration at 0.5 h", "setting": "[36]", "value": 166, "unit": "ng/g"}]}]}
